Source: patent US20260139017A1, “COMPOSITIONS AND METHODS USING REELIN IN ALZHEIMER'S DISEASE” (The General Hospital Corporation, priority 2022, published 2026)

Assays:
[1] = Surface plasmon resonance (SPR) binding of CTR-RELN peptides to heparin-coated chip
Experimental: Surface plasmon resonance assay (SPR) was used for performing binding kinetics using a Biacore 3000 Instrument (GE Healthcare) at 25° C. following previously published protocols (7 24) as fee-for-service by Precision Antibody (Maryland, USA). Biotin-labeled heparin (B9806, Sigma Aldrich) was covalently linked to streptavidin-coated chip and unoccupied sites were blocked with biocytin. Antigen was flowed over the chip using a range of single analyte concentrations prepared in DPBS buffer and using a flow rate of 30 μL/min. Binding of antigen to the ligand was monitored in real time to obtain on (ka) and off (kd) rates. The equilibrium constant (KD) was calculated from the observed ka and kd. Accuracy of the SPR analysis was determined via Chi square (χ2) analysis as described in the statistical analysis section. We included in the analyses the WT and H3447R peptides and peptides with the hypothetical H3447D change ([…])(SEQ ID NO:57) and the H3447K change ([…])(SEQ ID NO:58), also produced and purified by Innovagen (Sweden).
Surface plasmon resonance assay (SPR) was used for performing binding kinetics using a Biacore 3000 Instrument (GE Healthcare) at 25° C. following previously published protocols 34 24 fee-for-service by Precision Antibody (Maryland, USA). Heparin was covalently linked to streptavidin coated chip at 13 response units (RU) concentration and unoccupied sites were blocked with biocytin. Antigen was flowed over the chip using a range of single analyte concentrations prepared in DPBS buffer and using a flow rate of 30 μL/min. Binding of antigen to the ligand was monitored in real time to obtain on (ka) and off (kd) rates. The equilibrium constant (KD) was calculated from the observed ka and kd. Accuracy of the SPR analysis was determined via Chi square (2) analysis as described in the statistical analysis section.

[2] = Isothermal titration calorimetry (ITC) of CTR-RELN with heparin; assay type: binding; details: titrated with 5 μM heparin, vs WT
VLDLr = target: T1, VLDLr (Homo sapiens, UniProt P98155); assay: ELISA cell-free binding of RELN variants to VLDLr
T1 construct: purchased R&D 8444-VL
Experimental: Enzyme-linked immunosorbent assay (ELISA) was used to quantify changes in binding of RELN variants (media-derived full-length or CTR-RELN) to either VLDLr or ApoEr2 following an optimized version of a previously published protocol (6). Briefly, ELISA strips (DY008, R&D Systems) were coated with one ng/μL (100 μL/well) of VLDLr (8444-VL, R&D) or ApoEr2 (TP320903, OnGene) receptors diluted in 25 mM Tris HCl, 140 mM NaCl, […], two mM CaCl2), pH 7.4 (TBS-C buffer). After 18 h at four ° C. incubation, plates were blocked one h with three % BSA (22070008-6, Bioworld), 0.05% Tween-20 (Sigma Aldrich) TBS-C buffer. We assessed binding via incubation with 100 μL/well of serial dilutions of recombinant RELN protein (Ser1221-Gln2666, 8546-MR-050, R&D) or RELN variants in TBS-C buffer for one hour at room temperature. For detection, we used goat anti-mouse RELN primary antibody (LS-C793521-100, LS-Bio, 1:2,000, 100 μL/well) as primary antibody for one h at R.T. and (1:10,000; 100 μL/well, donkey anti-goat IgG H&L, HRP, ab6885, Abcam) as secondary antibody for 30 min. at R.T. Between each of the previous steps, plates were washed four times with TBS-C buffer (200 μL/well). Plates were washed three times prior to initiating the colorimetric reaction (DY008, R&D Systems). Stop solution (50 μL/well, DY008, R&D Systems) was added upon five min. incubation and the absorbance of the samples was measured at 450 nm using the Synergy 2 microplate reader (BioTek Instruments). Processing and analysis of the data was done using Gen5 1.11 software and GraphPad Prism, respectively.

Aβ42 = target: T2, Aβ42 (Homo sapiens, UniProt P05067); assay: Thioflavin T (ThT) Aβ aggregation assay; assay type: biochemical; details: Aβ42 55 μM, 10 μM peptide, vs Aβ alone
T2 construct: SensoLyte ThT O-Amyloid (1-42) Aggregation kit
Experimental: Therefore, the ThT assay can be used to quantify AB aggregation using previously developed methods (40).
We incubated CTR-RELN with Aβ and monitored aggregation using a ThioflavinT fluorescence assay normalized to the maximum ThT emission of Aβ only. We also assayed Aβ in the presence of morin, a known inhibitor (41), as a […]. Long and short WT and H3447R RELN CTR peptides were included to better understand the potential role of the H3447R mutation in amyloid pathology (FIGS. 14 and 15. Negative controls included long and short RELN CTR peptides with neutrally charged AAs (histidines) in place of basic AAs in the alpha- and beta-GAG binding sites.
A Thioflavin T (ThT) assay was also performed using synthetic Reelin peptides to assess the differential effects of these proteins on Aβ42 aggregation in vitro using Thioflavin T (SensoLyte ThT O-Amyloid (1-42) Aggregation kit, catalog no. ΔS-72214). Aβ42 was added to a final concentration of 55 μM in solutions of 10 μM of Reelin peptide variants in a transparent, no-binding 96-well plate. Samples were then mixed with 2 mM Thioflavin T dye and fluorescence was read at excitation wavelength/emission wavelength (Ex/Em)=440/484 nm at intermittent time intervals over 2 h. The plate was kept at 37° C. with 15 s shaking between reads. […] In general, it appears that the RELN Cterm domain is highly unstructured. […] If the mini-RELN includes the C-term domain only without a receptor binding domain then the protection will not involve signaling, but will still involve direct interactions with tau. If the mini-RELN includes the C-term domain and the receptor binding domain, it will have at least two protective mechanisms, namely RELN signaling and direct interactions with tau.

T2 sequence (P05067 672-713 limits assumed): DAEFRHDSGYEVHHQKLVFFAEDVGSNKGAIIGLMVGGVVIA

RKQNYMMNFSRQHGLRRFYNRRRRSLRRYP [CTR-RELN H3447R]
heparin affinity/interaction relative to WT, in words ([1]; SPR kinetic constants): about twice | interaction/affinity with heparin relative to WT ([1]; SPR, kinetic data, vs RELN WT peptide): ~2 fold | thermodynamics of heparin interaction [2]: enhanced interactions | binding to VLDLr (VLDLr): unable to bind directly | Aβ aggregation (ThT fluorescence) (Aβ42; listed as COLBOS variant): enhanced this effect | Aβ aggregation (ThT fluorescence) (Aβ42; listed as H3447R): did not significantly affect Aβ aggregation compared to WT | Aβ aggregation (ThT fluorescence) (Aβ42; listed as RELN H3447R): similarly effective at inhibiting ThT aggregation as WT
